Test results from US9675070B2 (BAYER CROPSCIENCE AG, priority 2013, dated 2017).

Columns and labels:
[1] = tested on: engorged adult female cattle ticks (Boophilus microplus); test: Boophilus microplus injection test (BOOPMI Inj); format: in vivo; conditions: application rate 20 μg/animal; injection into abdomen; assessed after 7 days
Description: Boophilus microplus Injection Test (BOOPMI Inj)
(§1) Solvent: dimethyl sulphoxide
To produce a suitable preparation of active compound, 10 mg of active compound are mixed with 0.5 ml of solvent, and the concentrate is diluted with solvent to the desired concentration.
1 μl of the active compound solution is injected into the abdomen of 5 engorged adult female cattle ticks (Boophilus microplus). The animals are transferred into dishes and kept in a climate-controlled room.
(§2) The activity is assessed after 7 days by laying of fertile eggs. Eggs whose fertility is not visible from the outside are stored in a climate-controlled cabinet until the larvae hatch after about 42 days. An efficacy of 100% means that none of the ticks has laid any fertile eggs; 0% means that all eggs are fertile.

[2] = tested on: cattle ticks (Boophilus microplus) Parkhurst strain, SP-resistant; test: Boophilus microplus dip test (BOOPMI Dip); format: in vivo; conditions: application rate 100 ppm, assessed after 7 days
Description: Boophilus microplus—Dip Test (BOOPMI Dip)
Test animals: cattle ticks (Boophilus microplus) Parkhurst strain, SP-resistant
as §1
10 mg of active compound are dissolved in 0.5 ml of dimethyl sulphoxide. To prepare a suitable formulation, the active compound solution is diluted with water to the concentration desired in each case.
This active compound preparation is pipetted into tubes. 8-10 adult engorged female cattle ticks (Boophilus microplus) are transferred into a further tube with holes. The tube is immersed into the active compound formulation, and all ticks are completely wetted. After the liquid has run out, the ticks are transferred on filter discs into plastic dishes and stored in a climate-controlled room.
as §2

[3] = tested on: greenhouse red spider mite (Tetranychus urticae), OP-resistant; test: Tetranychus urticae spray test, OP-resistant (TETRUR); format: in vivo; conditions: application rate 100 g/ha; bean leaf discs; after 6 days
Description: Tetranychus urticae—Spray Test, OP-Resistant (TETRUR)
(§3) Solvents: 78.0 parts by weight of acetone
(§4) • 1.5 parts by weight of dimethylformamide Emulsifier: alkylaryl polyglycol ether
(§5) To produce a suitable preparation of active compound, 1 part by weight of active compound is dissolved using the stated parts by weight of solvent and made up with water comprising an emulsifier concentration of 1000 ppm until the desired concentration is reached. To produce further test concentrations, the preparation is diluted with emulsifier-containing water.
Discs of bean leaves (Phaseolus vulgaris) which are infested by all stages of the greenhouse red spider mite (Tetranychus urticae) are sprayed with an active compound preparation of the desired concentration.
After 6 days, the efficacy in % is determined. 100% means that all of the spider mites have been killed; 0% means that none of the spider mites have been killed.

[4] = tested on: larvae of the mustard beetle (Phaedon cochleariae); test: Phaedon cochleariae spray test (PHAECO); format: in vivo; conditions: application rate 100 g/ha; Chinese cabbage leaf discs; after 7 days
Description: Phaedon cochleariae—Spray Test (PHAECO)
as §3, §4, §5
After 7 days, the efficacy in % is determined. 100% means that all of the beetle larvae have been killed; 0% means that none of the beetle larvae have been killed.

[5] = tested on: Tick nymphs (Amblyomma hebraeum); test: Amblyomma hebaraeum test (AMBYHE), tick nymph immersion; format: in vivo; conditions: application rate 100 ppm; immersion one minute; after 42 days
Description: Amblyomma hebaraeum Test (AMBYHE) Solvent: dimethyl sulphoxide To produce a suitable preparation of active compound, 10 mg of active compound are mixed with 0.5 ml of dimethyl sulphoxide, and the concentrate is diluted with water to the desired concentration. Tick nymphs (Amblyomma hebraeum) are placed into perforated plastic beakers and immersed in the desired concentration for one minute. The ticks are transferred on filter paper into a Petri dish and stored in a climate-controlled cabinet. After 42 days, the kill in % is determined. 100% means that all of the ticks have been killed; 0% means that none of the ticks have been killed.

[6] = tested on: L1 larvae of the Australian sheep blowfly (Lucilia cuprina); test: Lucilia cuprina test (LUCICU); format: in vivo; conditions: application rate 100 ppm; minced horsemeat; after 2 days
Description: Lucilia cuprina Test (LUCICU) Solvent: dimethyl sulphoxide To produce a suitable preparation of active compound, 10 mg of active compound are mixed with 0.5 ml of dimethyl sulphoxide, and the concentrate is diluted with water to the desired concentration. About 20 L1 larvae of the Australian sheep blowfly (Lucilia cuprina) are transferred into a test vessel containing minced horsemeat and the active compound preparation of the desired concentration. After 2 days, the kill in % is determined. 100% means that all of the larvae have been killed; 0% means that none of the larvae have been killed.

[7] = tested on: adult cat fleas (Ctenocephalides felis); test: Ctenocephalides felis oral test (CTECFE); format: in vivo; conditions: application rate 100 ppm in citrated cattle blood; after 2 days
Description: Ctenocephalides felis-Oral Test ([…]) Solvent: dimethyl sulphoxide To produce a suitable preparation of active compound, 10 mg of active compound are mixed with 0.5 ml of dimethyl sulphoxide. Dilution with citrated cattle blood gives the desired concentration. About 20 unfed adult cat fleas (Ctenocephalides felis) are placed into a chamber which is closed at the top and bottom with gauze. A metal cylinder whose bottom end is closed with a parafilm is placed onto the chamber. The cylinder contains the blood/active ingredient preparation, which can be imbibed by the fleas through the parafilm membrane. After 2 days, the kill in % is determined. 100% means that all of the fleas have been killed; 0% means that none of the fleas have been killed.

[8] = tested on: adult houseflies (Musca domestica); test: Musca domestica test (MUSCDO); format: in vivo; conditions: application rate 100 ppm; after 2 days
Description: Musca domestica Test (MUSCDO) Solvents: dimethyl sulphoxide To produce a suitable preparation of active compound, 10 mg of active compound are mixed with 0.5 ml of dimethyl sulphoxide, and the concentrate is diluted with water to the desired concentration. Vessels containing a sponge treated with sugar solution and the active compound preparation of the desired concentration are populated with 10 adult houseflies (Musca domestica). After 2 days, the kill in % is determined. 100% means that all of the flies have been killed; 0% means that none of the flies have been killed.

[9] = tested on: caterpillars of the armyworm (Spodoptera frugiperda); test: Spodoptera frugiperda spray test (SPODFR); format: in vivo; conditions: application rate 100 g/ha; maize leaf discs; after 7 days
Description: Spodoptera frugiperda—Spray Test (SPODFR)
as §3, §4, §5
Leaf discs of maize (Zea mays) are sprayed with an active compound preparation of the desired concentration and, after drying, populated with caterpillars of the armyworm (Spodoptera frugiperda).
After 7 days, the efficacy in % is determined. 100% means that all of the caterpillars have been killed; 0% means that none of the caterpillars have been killed.

[10] = log P determination by HPLC on reversed-phase column (C18), EEC Directive 79/831 Annex V.A8; format: physicochemical; conditions: method a): Agilent 1100 LC, Zorbax Eclipse Plus C18, acetonitrile/water with formic acid, gradient 10-95% in 4.25 min, 55° C.
Description: Agilent 1100 LC system; 50*4.6 Zorbax Eclipse Plus C18 1.8 micron; mobile phase A: acetonitrile (0.1% formic acid); mobile phase B: water (0.09% formic acid); linear gradient from 10% acetonitrile to 95% acetonitrile in 4.25 min, then 95% acetonitrile for a further 1.25 min; oven temperature 55° C.; flow rate: 2.0 ml/min. Mass detection is carried out via an Agilend MSD system.
^a)Unless indicated otherwise, the following method was used to determine the log P values and masses: The determination of the given log P values was carried out in accordance with EEC Directive 79/831 Annex V.A8 by HPLC (High Performance Liquid Chromatography) on a reversed-phase column (C18). Agilent 1100 LC system; 50*4.6 Zorbax Eclipse Plus C18 1.8 micron; mobile phase A: acetonitrile (0.1% formic acid); mobile phase B: water (0.09% formic acid); linear gradient from 10% acetonitrile to 95% acetonitrile in 4.25 min, then 95% acetonitrile for a further 1.25 min; oven temperature 55° C.; flow rate: 2.0 ml/min. Mass detection is carried out via an Agilend MSD system. ^b)Note for the alternative method for determining log P values and masses: The stated log P values were determined in accordance with EEC Directive 79/831 Annex V.A8 by HPLC (High Performance Liquid Chromatography) using a reversed-phase column (C18). Waters ACQUITY UPLC-MS system; 2.1*50 mm Zorbax Eclipse Plus C18 1.8 μm 600 bar; injection volume: 0.5 ul about 1000 ppm; mobile phase A: acetonitrile (0.1% formic acid); mobile phase B: water (0.085% formic acid); linear gradient from 10% acetonitrile to 95% acetonitrile in 1.5 min, then 95% acetonitrile for a further 0.5 min; oven temperature 60° C.; flow rate: 1.0 ml/min. Mass detection is carried out via a Waters SQD system.

SMILES	efficacy (no laying of fertile eggs) [1]	efficacy (no laying of fertile eggs) [2]	efficacy in % [3]	efficacy in % [4]	kill in % [5]	kill in % [6]	kill in % [7]	kill in % [8]	efficacy in % [9]	chromatographic logP [10]
CC(=O)NCc1cccc(-c2cnn(-c3c(C(F)(F)F)c(C(F)(F)C(F)(F)F)nn3C)c2)c1 [Ic-16]	100%	100%	90%	100%	100%	100%	100%	100%		
Cn1nc(C(F)(F)C(F)(F)F)c(C(F)(F)F)c1-n1cc(-c2cccc(CNC(=O)C3CC3)c2)cn1 [Ic-17]	100%	100%	100%	100%	90%	100%	100%	100%		
CCC(=O)NCc1cc(-c2cnn(-c3c(C(F)(F)F)c(C(F)(F)C(F)(F)F)nn3C)c2)ccc1F [Ic-2]	100%	100%	100%	100%	100%	100%	100%	100%	100%	
CC(=O)NCc1cc(-c2cnn(-c3c(C(F)(F)F)c(C(F)(F)C(F)(F)F)nn3C)c2)ccc1F [Ic-4]	100%	100%	100%	100%	100%	100%	100%	100%	83%	
CC(=O)NCc1cc(-c2cn(-c3c(C(F)(F)F)c(C(F)(F)C(F)(F)F)nn3C)nn2)ccc1F [Ig-1]	100%	80%	100%	100%		100%	100%	100%		
Cn1nc(C(F)(F)C(F)(F)F)c(C(F)(F)F)c1-n1cc(-c2ccc(F)c(C#N)c2)cn1 [2-fluoro-5-[2′-methyl-5′-(pentafluoroethyl)-4′-(trifluoromethyl)-2′H-1,3′-bipyrazol-4-yl]benzonitrile]										4.37
CCC(=O)NCc1cc(-c2cn(-c3c(C(F)(F)F)c(C(F)(F)C(F)(F)F)nn3C)nn2)ccc1F [Ig-5]	100%	100%		100%		100%	100%	100%	100%	
Cn1nc(C(F)(F)C(F)(F)F)c(C(F)(F)F)c1-n1cnc(-c2cccc(CNC(=O)OC(C)(C)C)c2)c1 [Ib-1, tert-butyl (3-{1-[1-methyl-3-(pentafluoroethyl)-4-(trifluoromethyl)-1H-pyrazol-5-yl]-1H-imidazol-4-yl}benzyl)carbamate]										4.21
Cn1nc(C(F)(F)C(F)(F)F)c(C(F)(F)F)c1-n1cc(-c2ccc(F)c(CNC(=O)C3CC3)c2)cn1 [Ic-12]	100%		90%	100%	100%	100%	100%	100%	100%	
Cn1nc(C(F)(F)C(F)(F)F)c(C(F)(F)F)c1-n1cnc(I)c1 [5-(4-iodo-1H-imidazol-1-yl)-1-methyl-3-(pentafluoroethyl)-4-(trifluoromethyl)-1H-pyrazole]										3.47
CCC(=O)NCc1cccc(-c2cn(-c3c(C(F)(F)F)c(C(F)(F)C(F)(F)F)nn3C)cn2)c1 [Ib-5, N-(3-{1-[1-methyl-3-(pentafluoroethyl)-4-(trifluoromethyl)-1H-pyrazol-5-yl]-1H-imidazol-4-yl}benzyl)propanamide]										3.14
CCC(=O)NCc1cc(-c2cnn(-c3c(C(F)(F)F)c(C(F)(F)C(F)(F)F)nn3C)c2)ccc1F [Ib-8, N-{2-fluoro-5-[2′-methyl-5′-(pentafluoroethyl)-4′-(trifluoromethyl)-2′H-1,3′-bipyrazol-4-yl]benzyl}propanamide]	100%			100%		100%	95%			3.27
Cn1nc(C(F)(F)C(F)(F)F)c(C(F)(F)F)c1-n1cc(Br)cn1 [4-bromo-2′-methyl-5′-(pentafluoroethyl)-4′-(trifluoromethyl)-2′H-1,3′-bipyrazole]										4.17
